“And” between values parts separate entries of the source, which are not always exact repeats. Equal values may be shown once. Toxic doses and inconclusive results are not listed. How the source made its calls: active means survival T/C of 150% or more; inactive means T/C below 125% in these data.
Test system: P388 leukemia ip, CD2F1 mice, survival T/C
Test: NCI In Vivo Anticancer Drug Screen. Data for tumor model P388 Leukemia (intraperitoneal) in CD2F1 (CDF1) mice
Details: endpoint: median survival time, higher = longer survival
How it was run: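 Mice carrying the transplanted tumor received test compound or vehicle. Survival was recorded in each group, and the value is the treated-group measurement divided by that of the vehicle-treated control group.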

Measured: T/C

COc1ccc(CS(=O)CC(N)C(=O)O)cc1 (centres undefined)
inactive: dose: 100.0 mg/kg/injection, schedule: Q04DX002 (ip), vehicle: saline with Tween-80 98 % of control | dose: 200.0 mg/kg/injection, schedule: Q04DX002 (ip), vehicle: saline with Tween-80 104 % of control | dose: 400.0 mg/kg/injection, schedule: Q04DX002 (ip), vehicle: saline with Tween-80 86 % of control

c1ccc2c(c1)Nc1ccc(CN3CCOCC3)cc1S2
inactive: dose: 60.0 mg/kg/injection, schedule: Q01DX005 (ip), vehicle: Klucel (hydroxypropylcellulose) (HPC) 104 % of control | dose: 120.0 mg/kg/injection, schedule: Q01DX005 (ip), vehicle: Klucel (hydroxypropylcellulose) (HPC) 97 % of control | dose: 240.0 mg/kg/injection, schedule: Q01DX005 (ip), vehicle: Klucel (hydroxypropylcellulose) (HPC) 92 % of control

C[n+]1c(-c2ccccc2)c2cc(N)ccc2c2ccc(N)cc21
inactive: dose: 1.56 mg/kg/injection, schedule: Q04DX003 (ip), vehicle: saline with Tween-80 106 % of control | dose: 3.13 mg/kg/injection, schedule: Q04DX003 (ip), vehicle: saline with Tween-80 107 % of control | dose: 6.25 mg/kg/injection, schedule: Q04DX003 (ip), vehicle: saline with Tween-80 118 % of control | dose: 25.0 mg/kg/injection, schedule: Q04DX003 (ip), vehicle: saline with Tween-80 124 % of control

CC(=O)OC1COC(Nc2cc(=O)n(C)c(=O)[nH]2)C(OC(C)=O)C1OC(C)=O (centres undefined)
inactive: dose: 100.0 mg/kg/injection, schedule: Q01DX001 (ip), vehicle: saline with Tween-80 101 % of control | dose: 200.0 mg/kg/injection, schedule: Q01DX001 (ip), vehicle: saline with Tween-80 100 % of control | dose: 400.0 mg/kg/injection, schedule: Q01DX001 (ip), vehicle: saline with Tween-80 95 % of control

c1ccc(CN2COc3c4c(c5ccccc5c3C2)CN(Cc2ccccc2)CO4)cc1
inactive: dose: 50.0 mg/kg/injection, schedule: Q01DX005 (ip), vehicle: saline with Tween-80 90 % of control | dose: 100.0 mg/kg/injection, schedule: Q01DX005 (ip), vehicle: saline with Tween-80 103 % of control | dose: 200.0 mg/kg/injection, schedule: Q01DX005 (ip), vehicle: saline with Tween-80 93 % of control

CCOC(=O)C(Cc1c[nH]c2ccccc12)(NC(C)=O)C(=O)OCC
inactive: dose: 100.0 mg/kg/injection, schedule: Q04DX003 (ip), vehicle: saline with Tween-80 100 % of control | dose: 200.0 mg/kg/injection, schedule: Q04DX003 (ip), vehicle: saline with Tween-80 100 % of control | dose: 400.0 mg/kg/injection, schedule: Q04DX003 (ip), vehicle: saline with Tween-80 100 % of control

O=Cc1cc(O)ccc1O
inactive: dose: 100.0 mg/kg/injection, schedule: Q01DX009 (ip), vehicle: saline 103 % of control and 114 % of control

c1ccc(C(c2ccccc2)(c2cccs2)N2CCCCC2)cc1
inactive: dose: 100.0 mg/kg/injection, schedule: Q01DX001 (ip), vehicle: Klucel (hydroxypropylcellulose) (HPC) 99 % of control | dose: 200.0 mg/kg/injection, schedule: Q01DX001 (ip), vehicle: Klucel (hydroxypropylcellulose) (HPC) 94 % of control | dose: 400.0 mg/kg/injection, schedule: Q01DX001 (ip), vehicle: Klucel (hydroxypropylcellulose) (HPC) 96 % of control

N=c1oc2ccccc2cc1C(=O)NNC(=O)c1ccncc1
inactive: dose: 100.0 mg/kg/injection, schedule: Q01DX001 (ip), vehicle: saline 96 % of control | dose: 200.0 mg/kg/injection, schedule: Q01DX001 (ip), vehicle: saline 96 % of control | dose: 400.0 mg/kg/injection, schedule: Q01DX001 (ip), vehicle: saline 102 % of control

CC1Cc2ccc3c(c2C(c2ccc4c(c2)OCO4)C1C)OCO3 (centres undefined)
inactive: dose: 60.0 mg/kg/injection, schedule: Q01DX005 (ip), vehicle: Klucel + Tween-80 103 % of control | dose: 120.0 mg/kg/injection, schedule: Q01DX005 (ip), vehicle: Klucel + Tween-80 97 % of control | dose: 240.0 mg/kg/injection, schedule: Q01DX005 (ip), vehicle: Klucel + Tween-80 86 % of control

O=c1c2ccccc2[nH]c2c([N+](=O)[O-])ccc(Oc3ccc(CCc4ccc(Oc5ccc([N+](=O)[O-])c6[nH]c7ccccc7c(=O)c56)cc4)cc3)c12
inactive: dose: 6.25 mg/kg/injection, schedule: Q01DX009 (ip), vehicle: saline with Tween-80 101 % of control | dose: 12.5 mg/kg/injection, schedule: Q01DX009 (ip), vehicle: saline with Tween-80 100 % of control | dose: 25.0 mg/kg/injection, schedule: Q01DX009 (ip), vehicle: saline with Tween-80 100 % of control | dose: 200.0 mg/kg/injection, schedule: Q01DX009 (ip), vehicle: saline with Tween-80 91 % of control

O=C1c2ccccc2-c2cc3ccccc3c(=O)n21
inactive: dose: 60.0 mg/kg/injection, schedule: Q01DX005 (ip), vehicle: saline with Tween-80 95 % of control | dose: 120.0 mg/kg/injection, schedule: Q01DX005 (ip), vehicle: saline with Tween-80 91 % of control | dose: 240.0 mg/kg/injection, schedule: Q01DX005 (ip), vehicle: saline with Tween-80 89 % of control

OC1(c2ccccc2C(O)(C(F)(F)F)C(F)(F)F)OC(C(F)(F)F)(C(F)(F)F)c2ccccc21 (centres undefined)
inactive: dose: 12.5 mg/kg/injection, schedule: Q01DX009 (ip), vehicle: Klucel (hydroxypropylcellulose) (HPC) 101 % of control | dose: 25.0 mg/kg/injection, schedule: Q01DX009 (ip), vehicle: Klucel (hydroxypropylcellulose) (HPC) 99 % of control | dose: 50.0 mg/kg/injection, schedule: Q01DX009 (ip), vehicle: Klucel (hydroxypropylcellulose) (HPC) 99 % of control
